Reference: patent publication US5405857A, “3-substituted 1,2,3,4,-oxatriazole-5-imine compounds, a process for the preparation thereof and a pharmaceutical preparation containing said compounds” (A/S GEA Farmaceutisk Fabrik, priority 1991, dated 1995)
“Also recorded” adds a separate entry of the source. Where a name gives a salt, the structure may show the parent alone.

Tests used:
male rats [1] = test: Maximum tolerable dose (MTD) study i.p.; assay type: in vivo, rat; settings: i.p.
Protocol: (§1) Two tests were carried out on male rats, namely a determination of the "maximum tolerable dose" (MTD) and a test using multiple peroral doses. In addition, a LD50 test was carried out intravenously on mice.
(§2) In a MTD-test 10 animals were administered a dose of the substance once a day for a week, during which period the clinical and hematological parameters were recorded. When no signs of side effects appeared, the dose was increased in the following weeks until side effects appeared. The hemotological parameters measured were the following: the number of red and white blood cells, the number of blood platelets, the hemoglobin percentage, the hematocrit, and for the red blood cells also the average cell volume, the average cell hemoglobin content, and the average cell hemoglobin concentration. Furthermore, a differential count of the white blood cells was made.

[2] = Maximum tolerable dose (MTD) study i.p.; assay type: in vivo, rat; settings: rat, in vivo, ip; intraperitoneal, rats
Protocol: as §1, §2

blood platelets = test: Inhibition of blood platelet aggregation (aggregometer, ADP); assay type: cell-based, human (healthy testees); settings: Platelet, 0.05 h; human PRP, ADP 2 to 4 μM, 3 min incubation, 37° C.; read-out: IC50 (Inhibition of blood platelet aggregation)
Protocol: Compounds according to the invention were tested for their inhibition of clumping together (aggregation) of blood platelets (thrombocytes), which is the first phase of the formation of blood clots (thrombi). Such an inhibition may prevent the formation of blood clots and inhibit the development of new thrombi after a diagnosed thrombus.
Citrate stabilized ( 0.38% of sodium citrate, final concentration) venous blood from healthy testees is used, who have not used medicine for at least 8 days. Slight centrifugation (160×g for 10 minutes) results in PRP (blood plasma rich in platelets) which is pipetted. PPP (blood plasma poor in platelets) is obtained by an intense centrifugation (3000×g for 10 minutes) of the remaining blood. The light transmission is measured by the aggregometer (CHRONOLOG). PRP allows nearly no light transmitaaion, while PPP allows complete transmission of light. The PRP is placed in the aggregometer at 37° C. while being stirred by a magnet. Addition of a pro-aggregating substance causes the PRP to aggregate gradually and an increasing light transmission takes place at the same time. At complete aggregation a light transmission corresponding to PPP is obtained. Adnosine diphosphate (ADP) is used as pro-aggregating substance, said substance representing a basic biochemical mechanism for aggregation of blood platelets. The test substances are incubated for 3 minutes in PRP placed in the aggregometer at 37° C. during magnetic stirring. A predetermined positively aggregating dosage of adenosine diphosphate (ADP) (2 to 4 μM) is then added. […] A so-called IC50 -value (that is the concentration inhibiting the aggregation by 50% relative to the control aggregation) is calculated for each test substance by linear regression analysis (log concentration μM as constant ad abscissa and % inhibition as variable ad ordinate). The following known reference substances have been used: nitroglycerine (GTN), sodium nitroprusside (NNP) and SIN-1 (the active metabolite of molsidomine).

male rats [3] = test: Maximum tolerable dose (MTD) study p.o.; for Clinical observations: key: N.R.: nothing remarkable; for Increase in weight: key: N.R.: nothing remarkable; assay type: in vivo, rat; settings: p.o.
Protocol: as §1, §2

[4] = Maximum tolerable dose (MTD) study p.o.; for Clinical observations: key: N.R.: nothing remarkable; for Increase in weight: key: N.R.: nothing remarkable; assay type: in vivo, rat; settings: rat, in vivo, po; peroral, rats
Protocol: as §1, §2

[5] = 10 mg/kg once a day for a week, relative to control
[6] = 20 mg/kg once a day for a week, relative to control
[7] = 20 mg/kg once a day for a week, relative to control, hydrochloride, 20 mg/kg
[8] = 40 mg/kg once a day for a week, relative to control

Cc1c(Cl)cccc1-[n+]1noc([NH-])n1 [Example 1, 3-(3-chloro-2-methylphenyl)-1,2,3,4-oxatriazole-5-imine hydrochloride]
Clinical observations (male rats [1]; [5]): N.R.
Hematological parameters (male rats [1]; [5]): N:R
Increase in weight (male rats [1]; [5]): N.R.
Increase in weight (male rats [1]; [6]): reduced
Clinical observations (male rats [1]; [7]): a passing CNS effect, where the animals a few minutes after the administration seemed nervous and hyperactive
Hematological parameters: neutrophilic granulocytes with toxic granulation (male rats [1]; [7]): increased number of neutrophilic granulocytes and a toxic granulation in some cells
Tolerability (in words) (male rats [1]; rats, up to 20 mg/kg): tolerated with only minor side effects
MTD [2]: ~20 mg/kg
IC50 (blood platelets): 320 nM
Clinical observations (male rats [3]; [5]): N.R.
Hematological parameters (male rats [3]; [5]): N.R.
Increase in weight (male rats [3]; [5]): N.R.
Clinical observations (male rats [3]; [6]): N.R.
Hematological parameters (male rats [3]; [6]): N.R.
Increase in weight (male rats [3]; [6]): N.R.
Clinical observations (male rats [3]; [8]): N.R.
Hematological parameters: hemoglobin percentage (HGB) (male rats [3]; [8]): reduced HGB
Hematological parameters: red blood cells (RBC) (male rats [3]; [8]): reduced RBC
Increase in weight (male rats [3]; [8]): N.R.
Hematological parameters: white blood cells (WBC) (male rats [3]; 40 mg/kg once a day for a week, relative to control, hydrochloride, 40 mg/kg): increased WBC; also recorded: increased content of white blood cells
Signs of anemia (male rats [3]; 40 mg/kg, after one week): signs of anemia
MTD [4]: 40 mg/kg
